Key:
Assay in all cases: radiometric filter-binding kinase assay
RPS6KA3 KD1 KD2 (human) = RPS6KA3 KD1 KD2 (human) (UniProt P51812)
PHKG1 (human) = PHKG1 (human) (UniProt Q16816); conditions: compound 10.0 µM
SYK (human) = SYK (human) (UniProt P43405); conditions: compound 10.0 µM

Sequence of RPS6KA3 KD1 KD2 (human) (P51812 whole entry, looked up): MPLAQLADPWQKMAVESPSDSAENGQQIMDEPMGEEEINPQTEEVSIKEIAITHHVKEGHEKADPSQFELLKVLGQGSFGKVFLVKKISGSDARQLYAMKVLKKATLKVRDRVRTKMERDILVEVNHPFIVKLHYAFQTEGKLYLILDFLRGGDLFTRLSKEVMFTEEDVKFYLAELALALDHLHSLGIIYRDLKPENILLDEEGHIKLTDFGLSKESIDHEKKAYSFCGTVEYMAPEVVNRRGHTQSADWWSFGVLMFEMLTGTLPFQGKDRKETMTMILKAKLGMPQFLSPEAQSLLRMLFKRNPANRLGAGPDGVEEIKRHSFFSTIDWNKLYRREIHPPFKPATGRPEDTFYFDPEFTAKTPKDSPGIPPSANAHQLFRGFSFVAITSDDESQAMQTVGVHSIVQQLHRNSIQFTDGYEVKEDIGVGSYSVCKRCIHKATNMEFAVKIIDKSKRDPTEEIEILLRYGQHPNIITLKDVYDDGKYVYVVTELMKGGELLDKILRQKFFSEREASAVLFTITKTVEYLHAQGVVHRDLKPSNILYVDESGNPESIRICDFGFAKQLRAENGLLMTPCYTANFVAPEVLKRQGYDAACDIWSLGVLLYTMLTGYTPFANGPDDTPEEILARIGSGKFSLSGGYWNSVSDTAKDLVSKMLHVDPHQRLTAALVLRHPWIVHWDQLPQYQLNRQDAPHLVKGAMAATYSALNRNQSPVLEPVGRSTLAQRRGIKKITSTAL
Sequence of PHKG1 (human) (Q16816 whole entry, looked up): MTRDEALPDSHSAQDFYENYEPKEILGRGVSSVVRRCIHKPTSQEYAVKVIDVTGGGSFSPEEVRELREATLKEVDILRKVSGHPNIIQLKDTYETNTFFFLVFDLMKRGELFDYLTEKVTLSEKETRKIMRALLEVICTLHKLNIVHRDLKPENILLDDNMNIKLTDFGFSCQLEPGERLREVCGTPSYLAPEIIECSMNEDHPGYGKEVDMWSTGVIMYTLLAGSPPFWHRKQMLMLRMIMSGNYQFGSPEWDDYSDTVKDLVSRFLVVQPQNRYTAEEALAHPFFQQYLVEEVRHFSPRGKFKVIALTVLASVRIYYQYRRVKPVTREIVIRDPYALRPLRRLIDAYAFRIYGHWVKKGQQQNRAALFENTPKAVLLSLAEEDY

residual activity (RPS6KA3 KD1 KD2 (human); compound 10.0 µM): 50% | residual activity (RPS6KA3 KD1 KD2 (human); compound 100.0 µM): 10% | residual activity (PHKG1 (human)): 54% | residual activity (SYK (human)): 100%
SMILES: Cc1nc(N)sc1-c1csc(Nc2cccnc2)n1

Reference: the kinase profiling compilation of Christmann-Franck et al. (2016)
